ChEMBL document CHEMBL4840352 (J Med Chem, 2021)
Each block holds one molecule with its values, some of them ahead of it. The source made the active and inactive calls. The calls are words filed in the database; no cut-off is given here.

Key:
MOLM-13 [1] = test: Antiproliferative activity against human MOLM-13 cells incubated for 48 hrs by CCK-8 assay; assay type: functional, cell-based; details: MOLM-13, 48 h
MV4-11 [2] = test: Antiproliferative activity against human MV4-11 cells incubated for 48 hrs by CCK-8 assay; assay type: functional, cell-based; details: MV4-11, 48 h
[3] = test system: Receptor-type tyrosine-protein kinase FLT3 (Homo sapiens), P36888 [UNDEFINED MUTATION]; test: Induction of FLT3-ITD degradation in human MOLM-13 cells after 24 hrs by Western blot analysis; assay type: cell-based
Sequence of Receptor-type tyrosine-protein kinase FLT3 (Homo sapiens), P36888 [UNDEFINED MUTATION] (P36888 whole entry, looked up, change not shown): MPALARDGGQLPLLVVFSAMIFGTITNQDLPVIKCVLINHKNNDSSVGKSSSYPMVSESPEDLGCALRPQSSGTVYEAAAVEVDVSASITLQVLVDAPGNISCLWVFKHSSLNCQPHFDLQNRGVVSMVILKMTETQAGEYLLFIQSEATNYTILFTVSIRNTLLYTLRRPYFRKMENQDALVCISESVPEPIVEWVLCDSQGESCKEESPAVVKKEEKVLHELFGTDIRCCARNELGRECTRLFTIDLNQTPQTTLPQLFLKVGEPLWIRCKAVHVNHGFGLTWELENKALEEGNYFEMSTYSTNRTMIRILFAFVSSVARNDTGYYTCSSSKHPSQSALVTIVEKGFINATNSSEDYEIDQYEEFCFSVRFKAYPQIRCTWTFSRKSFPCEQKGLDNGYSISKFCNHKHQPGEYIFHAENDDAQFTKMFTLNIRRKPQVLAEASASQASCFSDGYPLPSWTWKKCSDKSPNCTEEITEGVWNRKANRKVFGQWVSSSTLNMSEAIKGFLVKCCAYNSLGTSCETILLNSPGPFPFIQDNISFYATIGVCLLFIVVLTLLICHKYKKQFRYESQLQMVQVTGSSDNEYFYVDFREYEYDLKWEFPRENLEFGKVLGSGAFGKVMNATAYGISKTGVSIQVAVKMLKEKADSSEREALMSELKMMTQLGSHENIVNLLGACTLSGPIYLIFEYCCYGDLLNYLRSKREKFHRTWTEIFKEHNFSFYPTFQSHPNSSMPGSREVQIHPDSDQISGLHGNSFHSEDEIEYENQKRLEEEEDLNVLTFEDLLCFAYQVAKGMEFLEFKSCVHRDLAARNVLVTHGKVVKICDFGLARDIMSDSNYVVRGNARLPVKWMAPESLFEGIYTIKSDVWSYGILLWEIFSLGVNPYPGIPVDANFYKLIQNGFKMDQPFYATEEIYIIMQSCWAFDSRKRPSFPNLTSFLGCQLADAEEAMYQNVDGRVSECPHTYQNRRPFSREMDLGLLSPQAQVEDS

[4] = test system: Receptor-type tyrosine-protein kinase FLT3 (Homo sapiens), P36888 [UNDEFINED MUTATION]; test: Induction of FLT3-ITD degradation in human MV4-11 cells after 24 hrs by Western blot analysis; assay type: cell-based
MV4-11 [5] = test: Reduction in intracellular ROS level in human MV4-11 cells measured after 12 hrs by DCFH-DA probe based flow cytometry; assay type: functional, cell-based; details: dose 25-200 nM
[6] = molecular target: Platelet-derived growth factor receptor beta (Homo sapiens) (UniProt P09619); test: Induction of PDGFR degradation in human MV4-11 cells at 0 to 25 nM after 24 hrs by Western blot analysis; assay type: cell-based; details: dose 0-25 nM
Sequence of Platelet-derived growth factor receptor beta (Homo sapiens) (P09619 whole entry): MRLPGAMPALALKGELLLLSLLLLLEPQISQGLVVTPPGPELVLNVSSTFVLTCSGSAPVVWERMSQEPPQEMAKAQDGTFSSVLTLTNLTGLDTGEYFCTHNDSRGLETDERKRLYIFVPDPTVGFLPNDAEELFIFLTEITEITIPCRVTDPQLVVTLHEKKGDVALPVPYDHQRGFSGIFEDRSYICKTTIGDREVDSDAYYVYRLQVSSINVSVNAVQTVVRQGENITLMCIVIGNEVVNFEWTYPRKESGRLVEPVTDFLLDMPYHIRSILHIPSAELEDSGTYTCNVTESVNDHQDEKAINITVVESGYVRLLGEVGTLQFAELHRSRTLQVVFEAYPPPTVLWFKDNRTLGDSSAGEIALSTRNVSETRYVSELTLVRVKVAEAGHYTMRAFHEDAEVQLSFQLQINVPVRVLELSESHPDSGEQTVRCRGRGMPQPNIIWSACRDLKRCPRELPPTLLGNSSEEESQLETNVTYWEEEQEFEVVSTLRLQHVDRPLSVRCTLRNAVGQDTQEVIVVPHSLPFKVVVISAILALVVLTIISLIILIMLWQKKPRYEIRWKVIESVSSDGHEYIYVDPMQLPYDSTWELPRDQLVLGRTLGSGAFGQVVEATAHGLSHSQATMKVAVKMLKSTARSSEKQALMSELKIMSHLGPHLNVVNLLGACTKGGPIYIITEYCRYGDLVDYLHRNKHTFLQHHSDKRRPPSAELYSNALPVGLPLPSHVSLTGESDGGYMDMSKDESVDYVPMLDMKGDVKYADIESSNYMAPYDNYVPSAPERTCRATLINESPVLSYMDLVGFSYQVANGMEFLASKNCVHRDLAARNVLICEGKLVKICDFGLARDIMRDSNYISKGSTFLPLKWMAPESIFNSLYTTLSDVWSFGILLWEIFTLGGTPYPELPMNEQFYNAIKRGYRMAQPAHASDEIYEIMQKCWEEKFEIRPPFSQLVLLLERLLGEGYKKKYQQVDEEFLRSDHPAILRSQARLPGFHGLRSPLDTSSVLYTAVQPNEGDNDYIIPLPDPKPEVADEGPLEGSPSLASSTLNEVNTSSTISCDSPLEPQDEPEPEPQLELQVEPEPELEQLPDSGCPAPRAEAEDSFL

[7] = test system: Receptor-type tyrosine-protein kinase FLT3 (Homo sapiens), P36888 [UNDEFINED MUTATION]; test: Induction of FLT3-ITD degradation in human MV4-11 cells assessed as accumulation of ubiquitinated FLT3-ITD at 15 nM preincubated for 4 hrs followed by MG132 addition for 2 hrs by immunoprecipitation assay; assay type: cell-based; details: time 6.0 hrs
[8] = molecular target: Mast/stem cell growth factor receptor Kit (Homo sapiens) (UniProt P10721); test: Inhibition of KIT in human MOLM-13 cells assessed as reduction in PI3K phosphorylation at 5 to 25 nM after 24 hrs by Western blot analysis; assay type: cell-based; details: dose 5-25 nM
Sequence of Mast/stem cell growth factor receptor Kit (Homo sapiens) (P10721 whole entry): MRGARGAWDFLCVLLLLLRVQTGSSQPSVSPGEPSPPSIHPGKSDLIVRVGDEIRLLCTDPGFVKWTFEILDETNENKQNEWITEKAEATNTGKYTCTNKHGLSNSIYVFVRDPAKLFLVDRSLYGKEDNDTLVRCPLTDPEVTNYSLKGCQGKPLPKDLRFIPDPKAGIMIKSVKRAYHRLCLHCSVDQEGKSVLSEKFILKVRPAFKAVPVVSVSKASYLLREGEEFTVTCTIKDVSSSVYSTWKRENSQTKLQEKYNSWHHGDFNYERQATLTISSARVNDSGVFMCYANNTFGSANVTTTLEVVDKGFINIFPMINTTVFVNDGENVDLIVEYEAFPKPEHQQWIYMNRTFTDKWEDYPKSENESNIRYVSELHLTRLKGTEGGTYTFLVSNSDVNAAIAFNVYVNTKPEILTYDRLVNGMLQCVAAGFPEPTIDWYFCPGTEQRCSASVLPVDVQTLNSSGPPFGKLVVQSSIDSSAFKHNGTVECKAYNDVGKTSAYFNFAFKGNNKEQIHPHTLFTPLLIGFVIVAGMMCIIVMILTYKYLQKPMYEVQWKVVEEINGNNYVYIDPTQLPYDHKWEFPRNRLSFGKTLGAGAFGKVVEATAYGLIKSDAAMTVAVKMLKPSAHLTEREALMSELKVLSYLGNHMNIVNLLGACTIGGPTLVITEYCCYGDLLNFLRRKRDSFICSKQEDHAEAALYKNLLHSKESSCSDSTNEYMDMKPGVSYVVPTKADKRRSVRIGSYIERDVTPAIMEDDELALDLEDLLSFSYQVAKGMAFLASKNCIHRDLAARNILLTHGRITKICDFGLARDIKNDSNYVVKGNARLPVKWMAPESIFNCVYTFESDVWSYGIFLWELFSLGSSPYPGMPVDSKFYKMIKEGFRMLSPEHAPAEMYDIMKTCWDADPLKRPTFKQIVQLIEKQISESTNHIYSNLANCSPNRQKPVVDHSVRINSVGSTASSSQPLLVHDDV

[9] = test system: Receptor-type tyrosine-protein kinase FLT3 (Homo sapiens), P36888 [UNDEFINED MUTATION]; test: Induction of FLT3-ITD degradation in human MV4-11 cells at 20 nM pretreated with pomalidomide for 2 hrs followed compound addition for 6 hrs by Western blot analysis; assay type: cell-based
[10] = molecular target: Mast/stem cell growth factor receptor Kit (Homo sapiens) (UniProt P10721); test: Induction of KIT degradation in human MV4-11 cells at 0 to 25 nM after 24 hrs by Western blot analysis; assay type: cell-based; details: dose 0-25 nM
[11] = molecular target: Receptor-type tyrosine-protein kinase FLT3 (Homo sapiens) (UniProt P36888); test: Inhibition of FLT3 in human MV4-11 cells assessed as reduction in ERK phosphorylation at 15 nM by Western blot analysis; assay type: cell-based; details: time 0-12 hrs, TDE = time-dependent effect
Sequence of Receptor-type tyrosine-protein kinase FLT3 (Homo sapiens) (P36888 whole entry): as the sequence (P36888 whole entry, looked up, change not shown) above

MV4-11 [12] = test: Antitumor activity against human MV4-11 cells xenografted in NOD/SCID mouse assessed as reduction in CD45-positive cells in bone marrow at 3 mg/kg/day, iv administered for 12 days by flow cytometry analysis (reference value: 32.23 %); assay type: functional; design: scale not given: the % may be the effect or the level left; details: time 12 day
MOLM-13 [13] = test: Induction of apoptosis in human MOLM-13 cells assessed as upregulation of cleaved caspase-3 level at 15 nM by Western blot analysis; assay type: functional, cell-based; details: time 0-12 hrs, TDE = time-dependent effect
[14] = molecular target: Receptor-type tyrosine-protein kinase FLT3 (Homo sapiens) (UniProt P36888); test: Inhibition of FLT3 in human MV4-11 cells assessed as reduction in AKT phosphorylation at 15 nM by Western blot analysis; assay type: cell-based; details: time 0-12 hrs, TDE = time-dependent effect
[15] = molecular target: Mast/stem cell growth factor receptor Kit (Homo sapiens) (UniProt P10721); test: Induction of KIT degradation in human MOLM-13 cells at 0 to 25 nM after 24 hrs by Western blot analysis; assay type: cell-based; details: dose 0-25 nM
MOLM-13 [16] = test: Induction of apoptosis in human MOLM-13 cells assessed as downregulation of Mcl-1 level at 15 nM measured upto 12 hrs by Western blot analysis; assay type: functional, cell-based; details: time hrs <=12
[17] = molecular target: Receptor-type tyrosine-protein kinase FLT3 (Homo sapiens) (UniProt P36888); test: Inhibition of FLT3 in human MV4-11 cells assessed as reduction in FLT3 phosphorylation at 15 nM by Western blot analysis; assay type: cell-based; details: time 0-12 hrs, TDE = time-dependent effect
[18] = molecular target: Mast/stem cell growth factor receptor Kit (Homo sapiens) (UniProt P10721); test: Inhibition of KIT in human MV4-11 cells assessed as reduction in PI3K phosphorylation at 5 to 25 nM after 24 hrs by Western blot analysis; assay type: cell-based; details: dose 5-25 nM
[19] = test system: Receptor-type tyrosine-protein kinase FLT3 (Homo sapiens), P36888 [UNDEFINED MUTATION]; test: Induction of FLT3-ITD degradation in human MV4-11 cells at 20 nM pretreated with MG132 for 2 hrs followed compound addition for 6 hrs by Western blot analysis; assay type: cell-based
MV4-11 [20] = test: Induction of apoptosis in human MV4-11 cells after 48 hrs by Annexin-V/PI staining based flow cytometry; assay type: functional, cell-based; details: dose 1.25-10 nM
MOLM-13 [21] = test: Induction of apoptosis in human MOLM-13 cells assessed as downregulation of Bcl-2 level at 15 nM measured upto 12 hrs by Western blot analysis; assay type: functional, cell-based; details: time hrs <=12
[22] = molecular target: Receptor-type tyrosine-protein kinase FLT3 (Homo sapiens) (UniProt P36888); test: Inhibition of FLT3 in human MV4-11 cells assessed as reduction in STAT5 phosphorylation at 15 nM by Western blot analysis; assay type: cell-based; details: time 0-12 hrs, TDE = time-dependent effect
MV4-11 [23] = test: Induction of apoptosis in human MV4-11 cells assessed as downregulation of Mcl-1 level at 15 nM measured upto 12 hrs by Western blot analysis; assay type: functional, cell-based; details: time hrs <=12
MOLM-13 [24] = test: Reduction in intracellular ROS level in human MOLM-13 cells measured after 12 hrs by DCFH-DA probe based flow cytometry; assay type: functional, cell-based; details: dose 25-200 nM
[25] = test system: Receptor-type tyrosine-protein kinase FLT3 (Homo sapiens), P36888 [UNDEFINED MUTATION]; test: Induction of FLT3-ITD degradation in human MV4-11 cells at 20 nM pretreated with dov for 2 hrs followed compound addition for 6 hrs by Western blot analysis; assay type: cell-based
[26] = molecular target: Mast/stem cell growth factor receptor Kit (Homo sapiens) (UniProt P10721); test: Inhibition of KIT in human MOLM-13 cells assessed as reduction in STAT3 phosphorylation at 5 to 25 nM after 24 hrs by Western blot analysis; assay type: cell-based; details: dose 5-25 nM
[27] = Toxicity in NOD/SCID mouse xenografted with human MV4-11 cells assessed as effect on body weight at 3 mg/kg/day, iv administered for 12 hrs; assay type: organism-based; details: in vivo
[28] = molecular target: Receptor-type tyrosine-protein kinase FLT3 (Homo sapiens) (UniProt P36888); test: Inhibition of FLT3 in human MOLM-13 cells assessed as reduction in STAT5 phosphorylation at 15 nM by Western blot analysis; assay type: cell-based; details: time 0-12 hrs, TDE = time-dependent effect
[29] = molecular target: Platelet-derived growth factor receptor beta (Homo sapiens) (UniProt P09619); test: Induction of PDGFR degradation in human MOLM-13 cells at 0 to 25 nM after 24 hrs by Western blot analysis; assay type: cell-based; details: dose 0-25 nM
MOLM-13 [30] = test: Induction of apoptosis in human MOLM-13 cells after 48 hrs by Annexin-V/PI staining based flow cytometry; assay type: functional, cell-based; details: dose 1.25-10 nM
[31] = molecular target: Mast/stem cell growth factor receptor Kit (Homo sapiens) (UniProt P10721); test: Inhibition of KIT in human MV4-11 cells assessed as reduction in STAT3 phosphorylation at 5 to 25 nM after 24 hrs by Western blot analysis; assay type: cell-based; details: dose 5-25 nM
MV4-11 [32] = test: Induction of apoptosis in human MV4-11 cells assessed as upregulation of cleaved caspase-3 level at 15 nM by Western blot analysis; assay type: functional, cell-based; details: time 0-12 hrs, TDE = time-dependent effect
[33] = molecular target: Receptor-type tyrosine-protein kinase FLT3 (Homo sapiens) (UniProt P36888); test: Inhibition of FLT3 in human MOLM-13 cells assessed as reduction in AKT phosphorylation at 15 nM by Western blot analysis; assay type: cell-based; details: time 0-12 hrs, TDE = time-dependent effect
[34] = molecular target: Receptor-type tyrosine-protein kinase FLT3 (Homo sapiens) (UniProt P36888); test: Inhibition of FLT3 in human MOLM-13 cells assessed as reduction in FLT3 phosphorylation at 15 nM by Western blot analysis; assay type: cell-based; details: time 0-12 hrs, TDE = time-dependent effect
[35] = molecular target: Receptor-type tyrosine-protein kinase FLT3 (Homo sapiens) (UniProt P36888); test: Inhibition of FLT3 in human MOLM-13 cells assessed as reduction in ERK phosphorylation at 15 nM by Western blot analysis; assay type: cell-based; details: time 0-12 hrs, TDE = time-dependent effect
MV4-11 [36] = test: Induction of apoptosis in human MV4-11 cells assessed as downregulation of Bcl-2 level at 15 nM measured upto 12 hrs by Western blot analysis; assay type: functional, cell-based; details: time hrs <=12

- IC50 (MOLM-13 [1]): > 1000 nM
- IC50 (MV4-11 [2]): 929 nM
SMILES: Nc1c(-c2nc3cc(N4CCN(C(=O)CCC#Cc5cccc6c5C(=O)N(C5CCC(=O)NC5=O)C6=O)CC4)ccc3[nH]2)c(=O)[nH]c2cccc(F)c12 (configuration not stated)

- IC50 (MOLM-13 [1]): 93.7 nM
- IC50 (MV4-11 [2]): 424 nM
SMILES: Nc1c(-c2nc3cc(N4CCN(C(=O)CCCC#Cc5cccc6c5C(=O)N(C5CCC(=O)NC5=O)C6=O)CC4)ccc3[nH]2)c(=O)[nH]c2cccc(F)c12 (configuration not stated)

- Activity [3]: Dose-Dependent Effect
- IC50 (MOLM-13 [1]): 141 nM
- IC50 (MV4-11 [2]): 466 nM
- Activity [4]: Dose-Dependent Effect
SMILES: CN1C(=O)CCC(N2C(=O)c3cccc(NCCCCCC(=O)N4CCN(c5ccc6[nH]c(-c7c(N)c8c(F)cccc8[nH]c7=O)nc6c5)CC4)c3C2=O)C1=O (configuration not stated)

- IC50 (MOLM-13 [1]): 751 nM
- IC50 (MV4-11 [2]): > 1000 nM
SMILES: Nc1c(-c2nc3cc(N4CCN(CCCCC(=O)Nc5cccc6c5CN(C5CCC(=O)NC5=O)C6=O)CC4)ccc3[nH]2)c(=O)[nH]c2cccc(F)c12 (configuration not stated)

- Activity [3]: Dose-Dependent Effect
- Activity [6]: Active
- Activity [7]: Active
- inhibition [8]: Active
- Activity [9]: inactive
- Activity [10]: Active
- inhibition [11]: Tde
- inhibition [14]: Tde
- Activity [15]: Active
- inhibition [17]: Tde
- inhibition [18]: Active
- Activity [19]: inactive
- IC50 (MOLM-13 [1]): 10.1 nM
- IC50 (MV4-11 [2]): 18.7 nM
- inhibition [22]: Tde
- Activity [4]: Dose-Dependent Effect
- Activity [25]: inactive
- inhibition [26]: Active
- inhibition [28]: Tde
- Activity [29]: Active
- inhibition [31]: Active
- inhibition [33]: Tde
- inhibition [34]: Tde
- inhibition [35]: Tde
SMILES: Nc1c(-c2nc3cc(N4CCN(C(=O)CCCCNc5cccc6c5C(=O)N(C5CCC(=O)NC5=O)C6=O)CC4)ccc3[nH]2)c(=O)[nH]c2cccc(F)c12 (configuration not stated)
- Activity (MV4-11 [5]): Dose-Dependent Effect
- Activity (MV4-11 [12]): 5.25%
- Activity (MOLM-13 [13]): Tde
- Activity (MOLM-13 [16]): Active
- Activity (MV4-11 [20]): Dose-Dependent Effect
- Activity (MOLM-13 [21]): Active
- Activity (MV4-11 [23]): Active
- Activity (MOLM-13 [24]): Dose-Dependent Effect
- Activity [27]: Non-Toxic
- Activity (MOLM-13 [30]): Dose-Dependent Effect
- Activity (MV4-11 [32]): Tde
- Activity (MV4-11 [36]): Active

- IC50 (MOLM-13 [1]): 185 nM
- IC50 (MV4-11 [2]): 415 nM
SMILES: Cc1ncsc1-c1ccc(CNC(=O)[C@H]2C[C@H](O)CN2C(=O)[C@H](NC(=O)CCCCC(=O)N2CCN(c3ccc4[nH]c(-c5c(N)c6c(F)cccc6[nH]c5=O)nc4c3)CC2)C(C)(C)C)cc1

- IC50 (MOLM-13 [1]): 419 nM
- IC50 (MV4-11 [2]): 739 nM
SMILES: Nc1c(-c2nc3cc(N4CCN(CCCC(=O)Nc5cccc6c5C(=O)N(C5CCC(=O)NC5=O)C6=O)CC4)ccc3[nH]2)c(=O)[nH]c2cccc(F)c12 (configuration not stated)

- IC50 (MOLM-13 [1]): > 1000 nM
- IC50 (MV4-11 [2]): 418 nM
SMILES: Nc1c(-c2nc3cc(N4CCN(CCCCCCC(=O)Nc5cccc6c5C(=O)N(C5CCC(=O)NC5=O)C6=O)CC4)ccc3[nH]2)c(=O)[nH]c2cccc(F)c12 (configuration not stated)
